The values below come from patent US4334078A, “Dibenzothiophenes” (Hoffmann-La Roche Inc., priority 1980, dated 1982).

The data set relates to mice. Description: acute toxicity (LD50). The following applies: p.o. in mice. Type of data set: in vivo.

In turn, `O=C(O)Cc1ccc2c(c1)sc1ccc(Cl)cc12` [8-chloro-dibenzothiophene-3-acetic acid] had an LD50 of 775 mg.
